Earlier results on one compound are cited in patent US8715625B1, “Natural oral care compositions” (The Clorox Company, priority 2010, dated 2014).

SMILES strings stand for the structures.

The series has as its system plaque. The note with it: two tests conducted by Purdue University's Dental Science Research Group.

Take `C=C1C[C@@]23CC[C@H]4[C@@](C)(CCC[C@@]4(C)C(=O)O[C@@H]4O[C@H](CO)[C@@H](O)[C@H](O)[C@H]4O)[C@@H]2CC[C@]1(O[C@@H]1O[C@H](CO)[C@@H](O)[C@H](O)[C@H]1O[C@@H]1O[C@H](CO)[C@@H](O)[C@H](O)[C@H]1O)C3` [Stevioside]: the development of plaque entry is ““significantly” inhibits the development of plaque”.
